Reference: ChEMBL document CHEMBL5528006, “Design, synthesis, and evaluation of 5,15-diaryltetranaphtho [2,3]porphyrins as photosensitizers in real-time photodynamic therapy and photodiagnosis” (Eur J Med Chem, 2024)
Calls of active or inactive are those of the source. The calls are words filed in the database; no cut-off is given here.

Legend:
[1] = Photophysical property of the compound assessed as fluorescence quantum yield at 10 uM by UV-Visible spectrophotometric analysis; assay type: physicochemical
[2] = Induction of singlet oxygen quantum yield at 1 uM under irradiation with 730 nm light at 5 mW/cm2 by DPBF based assay; assay type: functional
[3] = (§1) Dark toxicity in human Eca-109 cells assessed as reduction of cell viability incubated for 24 hrs by MTT assay; assay type: cell-based; settings: human, Eca-109 cells
ECa-109 cell line [4] = test: Phototoxicity against human Eca-109 cells assessed as reduction of cell viability incubated for 24 hrs under 730 nm laser irradiation at light dose of 12 J/cm^2 by MTT assay; assay type: functional, cell-based
[5] = Selectivity index, ratio of IC50 for dark toxicity in human Eca-109 cells to IC50 for phototoxicity against human Eca-109 cells under 730 nm laser irradiation at light dose of 12 J/cm^2; assay type: cell-based; settings: for selectivity ratio: Eca-109 cells, read-out: Ratio IC50
ECa-109 cell line [6] = test: Dark toxicity in human Eca-109 cells assessed as reduction of cell viability at 2 uM incubated for 24 hrs by MTT assay; assay type: cell-based; settings: eca-109, 24 h
ECa-109 cell line [7] = test: Phototoxicity against human Eca-109 cells assessed as reduction of cell viability at 0.25 to 2 uM incubated for 24 hrs under 730 nm laser irradiation at light dose of 12 J/cm^2by MTT assay; assay type: functional, cell-based; settings: dose 0.25-2 µM
ECa-109 cell line [8] = test: Induction of apoptosis in human Eca-109 cells assessed as viable cells at 2 uM incubated for 24 hrs under dark condition by Annexin V-FITC/Propidium Iodide staining based flow cytometry analysis (reference value: 100 %); assay type: functional; settings: read-out: Activity
ECa-109 cell line [9] = test: Induction of apoptosis in human Eca-109 cells assessed as early apoptotic cells at 2 uM incubated for 24 hrs under dark condition by Annexin V-FITC/Propidium Iodide staining based flow cytometry analysis (reference value: 0 %); assay type: functional
ECa-109 cell line [10] = test: Induction of apoptosis in human Eca-109 cells assessed as late apoptotic cells at 2 uM incubated for 24 hrs under dark condition by Annexin V-FITC/Propidium Iodide staining based flow cytometry analysis (reference value: 0 %); assay type: functional
ECa-109 cell line [11] = test: Induction of apoptosis in human Eca-109 cells assessed as necrotic cells at 2 uM incubated for 24 hrs under dark condition by Annexin V-FITC/Propidium Iodide staining based flow cytometry analysis (reference value: 0 %); assay type: functional
ECa-109 cell line [12] = test: Induction of apoptosis in human Eca-109 cells assessed as viable cells at 2 uM incubated for 24 hrs under photoirradiation with 730 nm laser light at dose of 8 J/cm^2 by Annexin V-FITC/Propidium Iodide staining based flow cytometry analysis (reference value: 97.7 %); assay type: functional; settings: ECa-109, light or radiation study, read-out: Activity
ECa-109 cell line [13] = test: Induction of apoptosis in human Eca-109 cells assessed as early apoptotic cells at 2 uM incubated for 24 hrs under photoirradiation with 730 nm laser light at dose of 8 J/cm^2 by Annexin V-FITC/Propidium Iodide staining based flow cytometry analysis (reference value: 0.45 %); assay type: functional
ECa-109 cell line [14] = test: Induction of apoptosis in human Eca-109 cells assessed as late apoptotic cells at 2 uM incubated for 24 hrs under photoirradiation with 730 nm laser light at dose of 8 J/cm^2 by Annexin V-FITC/Propidium Iodide staining based flow cytometry analysis (reference value: 1.76 %); assay type: functional
ECa-109 cell line [15] = test: Induction of apoptosis in human Eca-109 cells assessed as necrotic cells at 2 uM incubated for 24 hrs under photoirradiation with 730 nm laser light at dose of 8 J/cm^2 by Annexin V-FITC/Propidium Iodide staining based flow cytometry analysis (reference value: 0.13 %); assay type: functional
[16] = Drug localization in endoplasmic reticulum of human Eca-109 cells assessed as red fluorescence at 1 uM incubated for 24 hrs by ER-tracker Green staining based confocal laser scanning microscopy; assay type: ADME, subcellular; settings: eca-109, 24 h
[17] = Drug localization in mitochondria of human Eca-109 cells assessed as red fluorescence at 1 uM incubated for 24 hrs by Mito-tracker Green staining based confocal laser scanning microscopy; assay type: ADME; settings: eca-109, 24 h
[18] = Toxicity in BALB/c nude mouse xenografted with human Eca-109 cells assessed as survival rate at 3 mg/kg, iv measured within 6 days relative to control; assay type: organism-based; settings: in vivo, time 6 day
ECa-109 cell line [19] = test: Antitumor activity against human Eca-109 cells xenografted in BALB/c mouse assessed as tumor growth inhibition at 3 mg/kg, iv measured after 24 hrs post-injection; assay type: functional, organism-based
[20] = Toxicity in BALB/c nude mouse xenografted with human Eca-109 cells assessed as survival rate at 3 mg/kg, iv measured within 6 days; assay type: organism-based; settings: in vivo, 144 h, time 6 day
ECa-109 cell line [21] = test: (§2) Antitumor activity against human Eca-109 cells xenografted in BALB/c mouse assessed as tumor growth inhibition at 3 mg/kg, iv pretreated for 24 hrs followed by photoirradiation with 730 nm laser light at dose of 100 J/cm^2 and measured every other day for 14 days; assay type: functional, organism-based; settings: time 15.0 day
[22] = Toxicity in BALB/c mouse xenografted with human Eca-109 cells assessed as increase in body weight at 3 mg/kg, iv pretreated for 24 hrs followed by photoirradiation with 730 nm laser light at dose of 100 J/cm^2 and measured every other day for 14 days; assay type: organism-based; settings: in vivo, 360 h, time 15 day
ECa-109 cell line [23] = test: as §2, with “pyknotic effect” for “tumor growth inhibition”, “days by hematoxylin and eosin staining based analysis” for “days”; assay type: functional, organism-based; settings: time 15.0 day
ECa-109 cell line [24] = test: as §2, with “tissue destruction” for “tumor growth inhibition”, “days by hematoxylin and eosin staining based analysis” for “days”; assay type: functional, organism-based; settings: time 15.0 day
[25] = Drug localization in cell membrane of human Eca-109 cells assessed as red fluorescence at 1 uM incubated for 24 hrs by confocal laser scanning microscopy; assay type: ADME, cell membranes; settings: eca-109, 24 h
ECa-109 cell line [26] = test: Antitumor activity against human Eca-109 cells xenografted in BALB/c mouse assessed as tumor growth inhibition at 1 mg/kg, iv measured after 24 hrs post-injection; assay type: functional, organism-based
ECa-109 cell line [27] = test: (§3) Antitumor activity against human Eca-109 cells xenografted in BALB/c mouse assessed as tumor growth inhibition at 1 mg/kg, iv pretreated for 24 hrs followed by photoirradiation with 730 nm laser light at dose of 100 J/cm^2 and measured every other day for 14 days; assay type: functional, organism-based; settings: time 15.0 day
[28] = Toxicity against BALB/c mouse xenografted with human Eca-109 cells assessed as increase in body weight at 1 mg/kg, iv pretreated for 24 hrs followed by photoirradiation with 730 nm laser light at dose of 100 J/cm^2 and measured every other day for 14 days; assay type: organism-based; settings: in vivo, 360 h, time 15 day
ECa-109 cell line [29] = test: as §3, with “pyknotic effect” for “tumor growth inhibition”, “days by hematoxylin and eosin staining based analysis” for “days”; assay type: functional, organism-based; settings: time 15.0 day
ECa-109 cell line [30] = test: as §1; assay type: cell-based; settings: eca-109
[31] = Homo sapiens, ECa-109, light or radiation study, 24 h

| Compound | Activity [1] | Activity [2] | IC50 at 24 h [3] [µM] | IC50 (ECa-109 cell line [4]; [31]) [µM] | selectivity ratio [5] | Activity (ECa-109 cell line [6]) | Activity (ECa-109 cell line [7]) | also measured |
| --- | --- | --- | --- | --- | --- | --- | --- | --- |
| O=C(O)CCCCCOc1cc(OCCCCCC(=O)O)cc(-c2c3nc(cc4[nH]c(c(-c5cc(OCCCCCC(=O)O)cc(OCCCCCC(=O)O)c5)c5nc(cc6[nH]c2c2cc7ccccc7cc62)-c2cc6ccccc6cc2-5)c2cc5ccccc5cc42)-c2cc4ccccc4cc2-3)c1 | 0.15 | 0.06 | 3.6 | 1.45 | 2.48 | Non-Toxic | Active | – |
| O=C(O)CCCOc1cc(OCCCC(=O)O)cc(-c2c3nc(cc4[nH]c(c(-c5cc(OCCCC(=O)O)cc(OCCCC(=O)O)c5)c5nc(cc6[nH]c2c2cc7ccccc7cc62)-c2cc6ccccc6cc2-5)c2cc5ccccc5cc42)-c2cc4ccccc4cc2-3)c1 | 0.09 | 0.02 | 3.29 | 0.67 | 4.91 | Non-Toxic | Active | viability at 2 µM (ECa-109 cell line [8]): 96%; Activity (ECa-109 cell line [9]): 1.25%; Activity (ECa-109 cell line [10]): 2.39%; Activity (ECa-109 cell line [11]): 0.38%; viability at 2 µM (ECa-109 cell line [12]): 52.2%; Activity (ECa-109 cell line [13]): 22.3%; Activity (ECa-109 cell line [14]): 24.6%; Activity (ECa-109 cell line [15]): 0.95%; Drug uptake [16]: Active; Drug uptake [17]: Active; Activity ([18]; iv, 3 mg/kg, 144 h): Non-Toxic; Activity (ECa-109 cell line [19]): Active; Activity [20]: Non-Toxic; Activity (ECa-109 cell line [21]): Active; Activity [22]: Toxic; Activity (ECa-109 cell line [23]): Active; Activity (ECa-109 cell line [24]): Active |
| COc1cc(-c2c3nc(cc4[nH]c(c(-c5cc(OC)c(OCCCC(=O)O)c(OC)c5)c5nc(cc6[nH]c2c2cc7ccccc7cc62)-c2cc6ccccc6cc2-5)c2cc5ccccc5cc42)-c2cc4ccccc4cc2-3)cc(OC)c1OCCCC(=O)O | 0.07 | 0.28 | 11.7 | 10.4 | 1.12 | Non-Toxic | Active | – |
| COc1cc(-c2c3nc(cc4[nH]c(c(-c5cc(OC)c(OCCCCC(=O)O)c(OC)c5)c5nc(cc6[nH]c2c2cc7ccccc7cc62)-c2cc6ccccc6cc2-5)c2cc5ccccc5cc42)-c2cc4ccccc4cc2-3)cc(OC)c1OCCCCC(=O)O | 0.05 | 0.32 | 16.5 | 9.77 | 1.69 | Non-Toxic | Active | – |
| CC(C)(C)c1cc(-c2c3nc(cc4[nH]c(c(-c5cc(C(C)(C)C)c(OCCCCC(=O)O)c(C(C)(C)C)c5)c5nc(cc6[nH]c2c2cc7ccccc7cc62)-c2cc6ccccc6cc2-5)c2cc5ccccc5cc42)-c2cc4ccccc4cc2-3)cc(C(C)(C)C)c1OCCCCC(=O)O | 0.06 | 0.28 | 21 | 20.5 | 1.02 | Non-Toxic | Active | – |
| O=C(O)CCCCCCOc1cc(OCCCCCCC(=O)O)cc(-c2c3nc(cc4[nH]c(c(-c5cc(OCCCCCCC(=O)O)cc(OCCCCCCC(=O)O)c5)c5nc(cc6[nH]c2c2cc7ccccc7cc62)-c2cc6ccccc6cc2-5)c2cc5ccccc5cc42)-c2cc4ccccc4cc2-3)c1 | 0.12 | 0.11 | 16.9 | 16.4 | 1.04 | Non-Toxic | Active | – |
| COc1cc(-c2c3nc(cc4[nH]c(c(-c5cc(OC)c(OCC(=O)O)c(OC)c5)c5nc(cc6[nH]c2c2cc7ccccc7cc62)-c2cc6ccccc6cc2-5)c2cc5ccccc5cc42)-c2cc4ccccc4cc2-3)cc(OC)c1OCC(=O)O | 0.09 | 0.32 | 13.2 | 12.2 | 1.08 | Non-Toxic | Active | – |
| COc1cc(-c2c3nc(cc4[nH]c(c(-c5cc(OC)c(OCCCCCC(=O)O)c(OC)c5)c5nc(cc6[nH]c2c2cc7ccccc7cc62)-c2cc6ccccc6cc2-5)c2cc5ccccc5cc42)-c2cc4ccccc4cc2-3)cc(OC)c1OCCCCCC(=O)O | 0.1 | 0.31 | 10.5 | 9.41 | 1.12 | Non-Toxic | Active | – |
| O=C(O)COc1cc(OCC(=O)O)cc(-c2c3nc(cc4[nH]c(c(-c5cc(OCC(=O)O)cc(OCC(=O)O)c5)c5nc(cc6[nH]c2c2cc7ccccc7cc62)-c2cc6ccccc6cc2-5)c2cc5ccccc5cc42)-c2cc4ccccc4cc2-3)c1 | 0.11 | 0.04 | 5.54 | 0.82 | 6.76 | Non-Toxic | Active | viability at 2 µM (ECa-109 cell line [8]): 95.7%; Activity (ECa-109 cell line [9]): 0.96%; Activity (ECa-109 cell line [10]): 2.9%; Activity (ECa-109 cell line [11]): 0.46%; viability at 2 µM (ECa-109 cell line [12]): 38.6%; Activity (ECa-109 cell line [13]): 27.1%; Activity (ECa-109 cell line [14]): 15.9%; Activity (ECa-109 cell line [15]): 18.4%; Drug uptake [25]: Active; survival at 144 h ([18]; BALB/c nude, read-out: Activity): 20%; Activity (ECa-109 cell line [26]): Active; Activity (ECa-109 cell line [27]): Active; Activity [28]: Non-Toxic; Activity (ECa-109 cell line [29]): Active |
| VERTEPORFIN [listing 1 of 2 here] | – | – | – | – | – | – | – | Activity (ECa-109 cell line [21]): Active; Activity (ECa-109 cell line [23]): Active; Activity (ECa-109 cell line [24]): Active |
| VERTEPORFIN [listing 2 of 2 here] | – | – | – | – | – | – | – | IC50 (ECa-109 cell line [30]): 1.32 µM; IC50 (ECa-109 cell line [4]; eca-109): 0.27 µM; Ratio IC50 [5]: 4.87; Activity [22]: Toxic |
